Results from paper PMC8064320, “Modulation of Glycinergic Neurotransmission may Contribute to the Analgesic Effects of Propacetamol” (Biomolecules, 2021).

Tests used:
Test in all cases: two-electrode voltage clamp, agonist-induced current in oocytes
Type in all cases: cell-based
Conditions in all cases: read-out: Glycine Dose-Response Relationship / EC50, -50 mV, ND96 without Ca2+, pH 7.4, 21-23 °C
GlyRα2 = test system: T1, GlyRα2
T1 construct: gene GLRA2; subunit expressed individually (homopentamer by known biology); plasmid pNKS2(GlyRα2); cRNA-injected Xenopus laevis oocytes
Text: two-electrode voltage clamp, agonist-induced current in oocytes on GlyRα2

GlyRα1 = test system: T2, GlyRα1
T2 construct: gene GLRA1; homomeric receptor (pentamer by known biology); plasmid pNKS2(GlyRα1); cRNA-injected Xenopus laevis oocytes
Text: two-electrode voltage clamp, agonist-induced current in oocytes on GlyRα1

GlyRα3 = test system: T3, GlyRα3
T3 construct: gene GLRA3; subunit expressed individually (homopentamer by known biology); plasmid pNKS2(GlyRα3); cRNA-injected Xenopus laevis oocytes
Text: two-electrode voltage clamp, agonist-induced current in oocytes on GlyRα3

EC50 (GlyRα2): 325 µM | EC50 (GlyRα1): 162 µM | EC50 (GlyRα3): 234 µM
SMILES: NCC(=O)O [glycine]
